What was measured:
RPTEC/hTERT1 cells = assay: Quantitative RT-PCR of Nrf2 and HO1 in RPTEC/hTERT1 cells; type: cell-based, human; conditions: in vitro
Protocol: FIG. 6. KW6002 alleviates the cisplatin-induced nephrotoxicity associated with apoptosis, lipid metabolism, and oxidative stress. (A) Tail moment assessed by comet assay; 50 cells/condition were analyzed. (B and C) KW6002 attenuates cisplatin-induced renal lipid accumulation, assessed by Red Oil staining. […] Results are the mean±SEM (n=6-9 mice/group). (F-H) KW6002 attenuated cisplatin-induced oxidative stress in RPTEC/hTERT1 cells. (F and G) Gene expression of Nrf2 (F) and HO1 (G). […] Results are the mean±SEM (n=3 independent experiments).
Total RNA from kidney samples was extracted with phenol/chloroform and subsequently precipitated in isopropanol as described previously (71). Total RNA from cultured renal cells was extracted using RNeasy Mini kit (Qiagen) following manufacturer's recommendations.
Reverse transcription was performed on 1 μg of RNA using high-capacity cDNA reverse transcription kit (Thermo Fisher), according the manufacturer's recommendation. Real time PCR was performed on a StepOne device using Taqman Gene Expression Master Mix (Thermo Fisher), following manufacturer's recommendations. […]

tumor cell transcriptome = assay: Whole transcriptome analysis of LLC1 tumors; type: in vivo, mice
Protocol: RNA-seq libraries (n=5-6/group) were generated from 500 ng of total RNA using Illumina® TruSeq® Stranded mRNA Library Prep Kit v2. Briefly, following purification with poly-T oligo attached magnetic beads, the mRNA was fragmented using divalent cations at 94° C. for 2 min. The cleaved RNA fragments were copied into first-strand cDNA using reverse transcriptase and random primers. […] Surplus PCR primers were further removed by purification using AMPure XP beads (Beckman Coulter), and the final cDNA libraries were checked for quality and quantified using capillary electrophoresis. Sequencing was performed on the Illumina® Genome Hiseq4000 as single-end 50 base reads following Illumina's instructions. Reads were mapped onto the mm 10 assembly of Mus musculus genome using STAR v2.5.3a (72). Only uniquely aligned reads were kept for further analyses. Quantification of gene expression was performed using HTSeq-count v0.6.1p1 (73) and gene annotations from Ensembl releases 90 and 102 and “union” mode. Read counts were normalized across libraries with the method proposed by Ander et al. (74). […]

LLC1 cells = assay: γH2AX immunostaining in LLC1 cells; type: cell-based, mouse; conditions: 2 μM cisplatin, 10 nM KW-6002, 6 hours, FIG. 7B
Protocol: (§1) FIG. 7. […] Caspase 3/-7 activity (n=3 independent experiments) (A) and the number of γH2AX nuclear foci (n=36-63 nuclei/group) (B) were determined. […] Results are expressed as the mean±SEM (n=3 independent experiments). (E) Tail moment was assessed by comet assay. A total of 50 cells per condition were analyzed. *** P<0.001; 1-way ANOVA followed by Tukey's post hoc test. […] (I) KW6002 increased yH2AX expression in tumors from mice of the LLC1 syngeneic model. Quantification of nuclear yH2AX expression.
Cells were fixed with 4% paraformaldehyde, permeabilized with DPBS/0.1% Triton X100 and incubated with γH2AX (Ser139) antibody (1/400; #9718, Cell Signaling Technology) and then, Alexa Fluor 488 secondary antibody (1/200; Life Technologies). Samples were examined on an immunofluorescence microscope (Leica™ DMI8) and γH2AX nuclear foci were counted.

H1975 cells = assay: γH2AX nuclear foci in H1975 cells; type: cell-based; conditions: 50 μM cisplatin, 10 nM KW6002, 6 hours, FIG. 7F
Protocol: as §1

CCn1c(=O)c2c(nc(/C=C/c3ccc(OC)c(OC)c3)n2C)n(CC)c1=O [KW-6002, 8-[(E)-2-(3,4-dimethoxyphenyl)vinyl]-1,3-diethyl-7-methyl-3,7-dihydro-1H-purine-2,6-dione]
cisplatin-induced increase in expression of Nrf2 (RPTEC/hTERT1 cells; FIG. 6F): normalized | cisplatin-induced increase in expression of HO1 (RPTEC/hTERT1 cells; FIG. 6G): normalized | selectively modulated genes that were downregulated (tumor cell transcriptome; among the 2497): 1016 genes | genes selectively modulated by cisplatin/KW-6002 co-treatment vs. vehicle (tumor cell transcriptome; out of 3923): 2497 genes | DNA damage: γH2AX nuclear foci (LLC1 cells): increased number of H2AX+ cells | DNA damage: yH2AX nuclear foci (H1975 cells): increased number of H2AX+ cells

Reference: patent publication US20250161312A1, “A METHOD FOR THE TREATMENT OF CHEMOTHERAPEUTIC DRUG-INDUCED NEPHROTOXICITY” (INSTITUT NATIONAL DE LA SANTÉ ET DE LA RECHERCHE MÉDICALE, priority 2022, published 2025)
